Measurements from article PMC9161374 (Science Translational Medicine, 2022).
Values joined by “and” are separate entries in the source; they are usually repeats but may differ in a detail not shown here. Equal values may be shown once.

Legend:
[1] = tested on: SARS-CoV-2 (Delta, B.1.617.2); experiment: microbe, parasite or virus in culture; assay type: cell-based; settings: for % Inhibition: delta
SARS-CoV-2 (B.1) = experiment: Anti-SARS-CoV-2 activity in Vero E6 cells (viral yield by qRT-PCR); assay type: cell-based
[2] = tested on: SARS-CoV-2 replicon system (pBAC-SARS-CoV-2-Replicon-Luc); experiment: microbe, parasite or virus in culture; assay type: cell-based; settings: Severe acute respiratory syndrome coronavirus 2, HEK-293T, 60 h
[3] = tested on: SARS-CoV-2 (B.1) in Huh7 cells; experiment: Anti-SARS-CoV-2 activity in Huh7 cells (viral yield by qRT-PCR); assay type: cell-based; settings: B.1, MOI 0.05, 48 h
[4] = tested on: SARS-CoV-2 (Beta, B.1.351); experiment: microbe, parasite or virus in culture; assay type: cell-based; settings: for % Inhibition: beta
[5] = CCK-8 cell viability assay; assay type: cell-based, African green monkey; settings: African green monkey; Vero E6 cells, 48 h, CCK8
Method in brief: (§1)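 Vero E6 cells, 20,000/well, exposed to compound at 0–200 μM (0, 0.01, 0.1, 1, 5, 10, 50, 75, 100, 200 μM) for 48 h; viability read by CCK-8 and expressed as percentage versus drug concentration, mean ± SD.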

Vero E6 cells = experiment: CCK-8 cell viability assay; assay type: cell-based, African green monkey; settings: individual replicate values, Fig.S4
Method in brief: as §1

## CCC(CC)C(=O)OC[C@H]1O[C@@](C#N)(c2ccc3c(N)ncnn23)[C@H](O)[C@@H]1O [ATV011]
[1]; Severe acute respiratory syndrome coronavirus 2, Vero C1008, 48 h, read-out: EC50 in Vero E6 cells, SARS-CoV-2 (Delta, B.1.617.2)
  EC50: 408 nM
[1]; Severe acute respiratory syndrome coronavirus 2, Vero C1008, delta, 0.01 uM, Vero E6, replicates
  inhibition at 0.01 µM: 0%
[1]; Severe acute respiratory syndrome coronavirus 2, Vero C1008, delta, 0.1 uM, Vero E6, replicates
  inhibition at 0.1 µM: 0%
[1]; Severe acute respiratory syndrome coronavirus 2, Vero C1008, delta, 0.25 uM, Vero E6, replicates
  inhibition at 0.25 µM: 18.8%
[1]; Severe acute respiratory syndrome coronavirus 2, Vero C1008, delta, 0.5 uM, Vero E6, replicates
  inhibition at 0.5 µM: 74.2%
[1]; Severe acute respiratory syndrome coronavirus 2, Vero C1008, delta, 1 uM, Vero E6, replicates
  inhibition at 1 µM: 83.5%
[1]; Severe acute respiratory syndrome coronavirus 2, Vero C1008, delta, 2 uM, Vero E6, replicates
  inhibition at 2 µM: 94.4%
[1]; Severe acute respiratory syndrome coronavirus 2, Vero C1008, delta, 5 uM, Vero E6, replicates
  inhibition at 5 µM: 94.6%
[1]; Severe acute respiratory syndrome coronavirus 2, Vero C1008, delta, 10 uM, Vero E6, replicates
  inhibition at 10 µM: 99.9%
[1]; Severe acute respiratory syndrome coronavirus 2, Vero C1008, delta, 50 uM, Vero E6, replicates
  inhibition at 50 µM: 100%
[1]; Severe acute respiratory syndrome coronavirus 2, Vero C1008, read-out: EC90 (Confidence 95%), Vero-E6, Delta B.1.617.2
  EC90: 842 nM
[1]; 0.01 uM, Vero E6, replicates
  % Inhibition: 0%
[1]; 0.1 uM, Vero E6, replicates
  % Inhibition: 0%
[1]; 0.25 uM, Vero E6, replicates
  % Inhibition: 20.35%
[1]; 0.5 uM, Vero E6, replicates
  % Inhibition: 62.851%
[1]; 1 uM, Vero E6, replicates
  % Inhibition: 82.2323%
[1]; 2 uM, Vero E6, replicates
  % Inhibition: 91.97%
[1]; 5 uM, Vero E6, replicates
  % Inhibition: 91.6601%
[1]; 10 uM, Vero E6, replicates
  % Inhibition: 99.4778%
[1]; 50 uM, Vero E6, replicates
  % Inhibition: 99.7579%
SARS-CoV-2 (B.1); 0.1 μM, replicates, sheet Fig.S3
  % Inhibition: 0%
SARS-CoV-2 (B.1); 0.5 μM, replicates, sheet Fig.S3
  % Inhibition: 0%
SARS-CoV-2 (B.1); 1 μM, replicates, sheet Fig.S3
  % Inhibition: 78.517%
SARS-CoV-2 (B.1); 2 μM, replicates, sheet Fig.S3
  % Inhibition: 79.6525%
SARS-CoV-2 (B.1); 5 μM, replicates, sheet Fig.S3
  % Inhibition: 91.2053%
SARS-CoV-2 (B.1); 10 μM, replicates, sheet Fig.S3
  % Inhibition: 90.9393%
SARS-CoV-2 (B.1); B.1, 0.01 uM, Vero E6, replicates
  % Inhibition: 0%
SARS-CoV-2 (B.1); B.1, 0.1 uM, Vero E6, replicates
  % Inhibition: 0%
SARS-CoV-2 (B.1); B.1, 0.25 uM, Vero E6, replicates
  % Inhibition: 0%
SARS-CoV-2 (B.1); B.1, 0.5 uM, Vero E6, replicates
  % Inhibition: 0%
SARS-CoV-2 (B.1); B.1, 1 uM, Vero E6, replicates
  % Inhibition: 0%
SARS-CoV-2 (B.1); B.1, 2 uM, Vero E6, replicates, 2 µM
  % Inhibition: 3.841% and 72.4491%
SARS-CoV-2 (B.1); B.1, 5 uM, Vero E6, replicates, 5 µM
  % Inhibition: 99.7181%
SARS-CoV-2 (B.1); B.1, 10 uM, Vero E6, replicates, 10 µM
  % Inhibition: 99.9819%
SARS-CoV-2 (B.1); B.1, 50 uM, Vero E6, replicates, 50 µM
  % Inhibition: 99.9874%
SARS-CoV-2 (B.1); Severe acute respiratory syndrome coronavirus 2, Vero C1008, 0.1 μM, replicates, sheet Fig.S3
  inhibition at 0.1 µM: 0%
SARS-CoV-2 (B.1); Severe acute respiratory syndrome coronavirus 2, Vero C1008, 0.5 μM, replicates, sheet Fig.S3
  inhibition at 0.5 µM: 0%
SARS-CoV-2 (B.1); Severe acute respiratory syndrome coronavirus 2, Vero C1008, 1 μM, replicates, sheet Fig.S3
  inhibition at 1 µM: 77.4%
SARS-CoV-2 (B.1); Severe acute respiratory syndrome coronavirus 2, Vero C1008, 2 μM, replicates, sheet Fig.S3
  inhibition at 2 µM: 78%
SARS-CoV-2 (B.1); Severe acute respiratory syndrome coronavirus 2, Vero C1008, 5 μM, replicates, sheet Fig.S3
  inhibition at 5 µM: 93.5%
SARS-CoV-2 (B.1); Severe acute respiratory syndrome coronavirus 2, Vero C1008, 10 μM, replicates, sheet Fig.S3
  inhibition at 10 µM: 93.2%
SARS-CoV-2 (B.1); Severe acute respiratory syndrome coronavirus 2, Vero C1008, B.1, 0.01 uM, Vero E6, replicates
  inhibition at 0.01 µM: 0%
SARS-CoV-2 (B.1); Severe acute respiratory syndrome coronavirus 2, Vero C1008, B.1, 0.1 uM, Vero E6, replicates
  inhibition at 0.1 µM: 0%
SARS-CoV-2 (B.1); Severe acute respiratory syndrome coronavirus 2, Vero C1008, B.1, 0.25 uM, Vero E6, replicates
  inhibition at 0.25 µM: 0%
SARS-CoV-2 (B.1); Severe acute respiratory syndrome coronavirus 2, Vero C1008, B.1, 0.5 uM, Vero E6, replicates
  inhibition at 0.5 µM: 0%
SARS-CoV-2 (B.1); Severe acute respiratory syndrome coronavirus 2, Vero C1008, B.1, 1 uM, Vero E6, replicates
  inhibition at 1 µM: 0%
SARS-CoV-2 (B.1); Severe acute respiratory syndrome coronavirus 2, Vero C1008, B.1, 5 uM, Vero E6, replicates
  inhibition at 5 µM: 99.5%
SARS-CoV-2 (B.1); Severe acute respiratory syndrome coronavirus 2, Vero C1008, B.1, 10 uM, Vero E6, replicates
  inhibition at 10 µM: 99.9%
SARS-CoV-2 (B.1); Severe acute respiratory syndrome coronavirus 2, Vero C1008, B.1, 50 uM, Vero E6, replicates
  inhibition at 50 µM: 99.9%
SARS-CoV-2 (B.1); Severe acute respiratory syndrome coronavirus 2, Vero C1008, read-out: EC90 (Confidence 95%)
  EC90: 2640 nM
SARS-CoV-2 (B.1); Severe acute respiratory syndrome coronavirus 2, Vero C1008, MOI 0.05, 48 h
  EC50: 2120 nM
[2]; read-out: EC50 (Confidence 95%), replicon
  EC50: 320 nM
[2]; read-out: EC90 (Confidence 95%), replicon
  EC90: 384 nM
[3]; Severe acute respiratory syndrome coronavirus 2, Huh-7, read-out: EC50 (Confidence 95%) in Huh7 cells
  EC50: 836 nM
[3]; Severe acute respiratory syndrome coronavirus 2, Huh-7, read-out: EC90 (Confidence 95%) in Huh7 cells
  EC90: 1010 nM
[4]; Severe acute respiratory syndrome coronavirus 2, Vero C1008, 48 h, read-out: EC50 in Vero E6 cells, SARS-CoV-2 (Beta, B.1.351)
  EC50: 2300 nM
[4]; Severe acute respiratory syndrome coronavirus 2, Vero C1008, beta, 0.01 uM, Vero E6, replicates
  inhibition at 0.01 µM: 0%
[4]; Severe acute respiratory syndrome coronavirus 2, Vero C1008, beta, 0.1 uM, Vero E6, replicates
  inhibition at 0.1 µM: 0%
[4]; Severe acute respiratory syndrome coronavirus 2, Vero C1008, beta, 0.25 uM, Vero E6, replicates
  inhibition at 0.25 µM: 0%
[4]; Severe acute respiratory syndrome coronavirus 2, Vero C1008, beta, 0.5 uM, Vero E6, replicates
  inhibition at 0.5 µM: 0%
[4]; Severe acute respiratory syndrome coronavirus 2, Vero C1008, beta, 1 uM, Vero E6, replicates
  inhibition at 1 µM: 0%
[4]; Severe acute respiratory syndrome coronavirus 2, Vero C1008, beta, 2 uM, Vero E6, replicates
  inhibition at 2 µM: 29.7%
[4]; Severe acute respiratory syndrome coronavirus 2, Vero C1008, beta, 5 uM, Vero E6, replicates
  inhibition at 5 µM: 99.6%
[4]; Severe acute respiratory syndrome coronavirus 2, Vero C1008, beta, 10 uM, Vero E6, replicates
  inhibition at 10 µM: 99.9%
[4]; Severe acute respiratory syndrome coronavirus 2, Vero C1008, beta, 50 uM, Vero E6, replicates
  inhibition at 50 µM: 99.9%
[4]; Severe acute respiratory syndrome coronavirus 2, Vero C1008, read-out: EC90 (Confidence 95%), Vero-E6, Beta B.1.351
  EC90: 2950 nM
[4]; 0.01 uM, Vero E6, replicates
  % Inhibition: 0%
[4]; 0.1 uM, Vero E6, replicates
  % Inhibition: 0%
[4]; 0.25 uM, Vero E6, replicates
  % Inhibition: 0%
[4]; 0.5 uM, Vero E6, replicates
  % Inhibition: 0%
[4]; 1 uM, Vero E6, replicates
  % Inhibition: 0%
[4]; 2 uM, Vero E6, replicates
  % Inhibition: 22.548%
[4]; 5 uM, Vero E6, replicates
  % Inhibition: 99.5042%
[4]; 10 uM, Vero E6, replicates
  % Inhibition: 99.9468%
[4]; 50 uM, Vero E6, replicates
  % Inhibition: 99.9524%
[5]
  CC50 at 48 h: > 50000 nM
Vero E6 cells; 0.01 μM compound, 0.01 µM
  cell viability (% of control): 118.751 % of control and 91.986 % of control and 93.878 % of control
Vero E6 cells; 0.1 μM compound, 0.1 µM
  cell viability (% of control): 121.196 % of control and 124.104 % of control and 115.797 % of control
Vero E6 cells; 1 μM compound, 1 µM
  cell viability (% of control): 117.043 % of control and 115.382 % of control and 124.473 % of control
Vero E6 cells; 2 μM compound, 2 µM
  cell viability (% of control): 120.919 % of control and 113.536 % of control and 114.367 % of control
Vero E6 cells; 5 μM compound, 5 µM
  cell viability (% of control): 138.178 % of control and 143.9 % of control and 139.562 % of control
Vero E6 cells; 10 μM compound, 10 µM
  cell viability (% of control): 141.085 % of control and 129.595 % of control and 122.535 % of control
Vero E6 cells; 50 μM compound, 50 µM
  cell viability (% of control): 76.4283 % of control and 65.5331 % of control and 77.184 % of control
